This is an account of results in ChEMBL document CHEMBL1125669, “Synthesis of potential dual-acting radiation sensitizer antineoplastic agents: 2,2-dimethylphosphoraziridines containing 2-nitroimidazoles or other electron-affinic moieties” (1991).

What all share (format): functional
Assay [1] deals with Mus musculus. Kind of assay: In vivo antitumor activity against P-388 leukemia in CDF1 mice at 8 mg or 21 umol by ip administration expressed as average wt. change determined between day 0 and day 6 of experiment.
Assay [2] relates to Mus musculus. Kind of assay: In vivo antitumor activity against P-388 leukemia in CDF1 mice at 64 mg or 167 umol by ip administration expressed as median survival time of drug treated mice/median survival time of control mice x100.
The subject of assay [3] is Mus musculus. Kind of assay: In vivo antitumor activity against P-388 leukemia in CDF1 mice at 256 mg or 670 umol by ip administration expressed as median survival time of drug treated mice/median survival time of control mice x100.
For assay [4], the system named is Mus musculus. Kind of assay: In vivo antitumor activity against P-388 leukemia in CDF1 mice at 64 mg or 167 umol by ip administration expressed as average wt. change determined between day 0 and day 6 of experiment.
The test system of assay [5] is Mus musculus. Kind of assay: In vivo antitumor activity against P-388 leukemia in CDF1 mice at 32 mg or 84 umol by ip administration expressed as average wt. change determined between day 0 and day 6 of experiment.
The subject of assay [6] is Mus musculus. Kind of assay: In vivo antitumor activity against P-388 leukemia in CDF1 mice at 128 mg or 335 umol by ip administration expressed as median survival time of drug treated mice/median survival time of control mice x100.
Assay [7] relates to Mus musculus. Kind of assay: In vivo antitumor activity against P-388 leukemia in CDF1 mice at 16 mg or 42 umol by ip administration expressed as median survival time of drug treated mice/median survival time of control mice x100.
Assay [8] relates to Mus musculus. Kind of assay: In vivo antitumor activity against P-388 leukemia in CDF1 mice at 16 mg or 42 umol by ip administration expressed as average wt. change determined between day 0 and day 6 of experiment.
The test system of assay [9] is Mus musculus. Kind of assay: In vivo antitumor activity against P-388 leukemia in CDF1 mice at 256 mg or 670 umol by ip administration expressed as average wt. change determined between day 0 and day 6 of experiment.
In assay [10] the test system is Mus musculus. Briefly: In vivo antitumor activity against P-388 leukemia in CDF1 mice at 128 mg or 335 umol by ip administration expressed as average wt. change determined between day 0 and day 6 of experiment.
In assay [11] the test system is Mus musculus. Kind of assay: In vivo antitumor activity against P-388 leukemia in CDF1 mice at 8 mg or 21 umol by ip administration expressed as median survival time of drug treated mice/median survival time of control mice x100.
The test system of assay [12] is Mus musculus. Kind of assay: In vivo antitumor activity against P-388 leukemia in CDF1 mice at 32 mg or 84 umol by ip administration expressed as median survival time of drug treated mice/median survival time of control mice x100.
The test system of assay [13] is Mus musculus. Kind of assay: In vivo antitumor activity against P-388 leukemia in CDF1 mice at 200 mg or 861 umol by ip administration expressed as median survival time of drug treated mice/median survival time of control mice x100.
The test system of assay [14] is Mus musculus. Kind of assay: effect of drug treatment in combination with gamma radiation on P-388 leukemia in mice at 120 mg/kg and 200R expressed as median survival time of drug treated mice/median survival time of control mice x100.
The subject of assay [15] is Mus musculus. Briefly: effect of drug treatment in combination with gamma radiation on P-388 leukemia in mice at 120 mg/kg and 600R expressed as median survival time of drug treated mice/median survival time of control mice x100.
Assay [16] concerns Mus musculus. Kind of assay: effect of drug treatment in combination with gamma radiation on P-388 leukemia in mice at 120 mg/kg and 400R expressed as average weight change.
The subject of assay [17] is Mus musculus. Briefly: In vivo antitumor activity against P-388 leukemia in CDF1 mice at 100 mg or 430 umol by ip administration expressed as average wt. change determined between day 0 and day 6 of experiment.
In assay [18] the test system is Mus musculus. Kind of assay: In vivo antitumor activity against P-388 leukemia in CDF1 mice at 200 mg or 861 umol by ip administration expressed as average wt. change determined between day 0 and day 6 of experiment.
The test system of assay [19] is Mus musculus. Briefly: effect of drug treatment in combination with gamma radiation on P-388 leukemia in mice at 120 mg/kg and 600R expressed as average weight change.
Assay [20] concerns Mus musculus. Briefly: In vivo antitumor activity against P-388 leukemia in CDF1 mice at 100 mg or 430 umol by ip administration expressed as median survival time of drug treated mice/median survival time of control mice x100.
Assay [21] relates to Mus musculus. Briefly: effect of drug treatment in combination with gamma radiation on P-388 leukemia in mice at 120 mg/kg and 200R expressed as average weight change.
For assay [22], the system named is Mus musculus. Kind of assay: effect of drug treatment in combination with gamma radiation on P-388 leukemia in mice at 120 mg/kg and 400R expressed as median survival time of drug treated mice/median survival time of control mice x100.
In assay [23] the test system is Mus musculus. Kind of assay: effect of drug treatment in combination with gamma radiation on P-388 leukemia in mice at 120 mg/kg and 0R expressed as median survival time of drug treated mice/median survival time of control mice x100.
The test system of assay [24] is Mus musculus. Briefly: effect of drug treatment in combination with gamma radiation on P-388 leukemia in mice at 120 mg/kg and 0R expressed as average weight change.
Assay [25] deals with Mus musculus. Briefly: In vivo antitumor activity against P-388 leukemia in CDF1 mice at 32 mg or 83 umol by ip administration expressed as average wt. change determined between day 0 and day 6 of experiment.
Assay [26] relates to Mus musculus. Briefly: In vivo antitumor activity against P-388 leukemia in CDF1 mice at 256 mg or 661 umol by ip administration expressed as median survival time of drug treated mice/median survival time of control mice x100.
Assay [27] relates to Mus musculus. Kind of assay: In vivo antitumor activity against P-388 leukemia in CDF1 mice at 128 mg or 330 umol by ip administration expressed as median survival time of drug treated mice/median survival time of control mice x100.
For assay [28], the system named is Mus musculus. Kind of assay: In vivo antitumor activity against P-388 leukemia in CDF1 mice at 16 mg or 41 umol by ip administration expressed as median survival time of drug treated mice/median survival time of control mice x100.
In assay [29] the test system is Mus musculus. Kind of assay: In vivo antitumor activity against P-388 leukemia in CDF1 mice at 64 mg or 165 umol by ip administration expressed as average wt. change determined between day 0 and day 6 of experiment.
Assay [30] has as its system Mus musculus. Kind of assay: In vivo antitumor activity against P-388 leukemia in CDF1 mice at 16 mg or 41 umol by ip administration expressed as average wt. change determined between day 0 and day 6 of experiment.
The subject of assay [31] is Mus musculus. Kind of assay: In vivo antitumor activity against P-388 leukemia in CDF1 mice at 32 mg or 83 umol by ip administration expressed as median survival time of drug treated mice/median survival time of control mice x100.
Assay [32] relates to Mus musculus. Kind of assay: In vivo antitumor activity against P-388 leukemia in CDF1 mice at 128 mg or 330 umol by ip administration expressed as average wt. change determined between day 0 and day 6 of experiment.
Assay [33] relates to Mus musculus. Kind of assay: In vivo antitumor activity against P-388 leukemia in CDF1 mice at 256 mg or 661 umol by ip administration expressed as average wt. change determined between day 0 and day 6 of experiment.
Assay [34] concerns Mus musculus. Kind of assay: In vivo antitumor activity against P-388 leukemia in CDF1 mice at 64 mg or 165 umol by ip administration expressed as median survival time of drug treated mice/median survival time of control mice x100.
The subject of assay [35] is Mus musculus. Kind of assay: In vivo antitumor activity against P-388 leukemia in CDF1 mice at 100 mg or 363 umol by ip administration expressed as median survival time of drug treated mice/median survival time of control mice x100.
Assay [36] relates to Mus musculus. Briefly: In vivo antitumor activity against P-388 leukemia in CDF1 mice at 400 mg or 1453 umol by ip administration expressed as average wt. change determined between day 0 and day 6 of experiment.
Assay [37] concerns Mus musculus. Briefly: In vivo antitumor activity against P-388 leukemia in CDF1 mice at 50 mg or 182 umol by ip administration expressed as median survival time of drug treated mice/median survival time of control mice x100.
The subject of assay [38] is Mus musculus. Briefly: In vivo antitumor activity against P-388 leukemia in CDF1 mice at 100 mg or 363 umol by ip administration expressed as average wt. change determined between day 0 and day 6 of experiment.
The subject of assay [39] is Mus musculus. Briefly: In vivo antitumor activity against P-388 leukemia in CDF1 mice at 50 mg or 182 umol by ip administration expressed as average wt. change determined between day 0 and day 6 of experiment.
In assay [40] the test system is Mus musculus. Briefly: In vivo antitumor activity against P-388 leukemia in CDF1 mice at 200 mg or 727 umol by ip administration expressed as average wt. change determined between day 0 and day 6 of experiment.
Assay [41] concerns Mus musculus. Kind of assay: In vivo antitumor activity against P-388 leukemia in CDF1 mice at 400 mg or 1453 umol by ip administration expressed as median survival time of drug treated mice/median survival time of control mice x100.
The test system of assay [42] is Mus musculus. Briefly: In vivo antitumor activity against P-388 leukemia in CDF1 mice at 200 mg or 727 umol by ip administration expressed as median survival time of drug treated mice/median survival time of control mice x100.

Regarding `CC1(C)CN1P(=O)(NC(=O)OCc1ccccc1[N+](=O)[O-])N1CC1(C)C` (stereo unspecified), the Average weight change with Mus musculus [1] is given as 0.6 g; in the assay on Mus musculus [4] it was -1.1 g; with Mus musculus [5] it was -0.4 g; with Mus musculus [8] it was 0 g; in the assay with Mus musculus [9], -1.5 g; in the assay on Mus musculus [10], -1.1 g. Moreover, the T/C (in general, the result in the treated group divided by that in the control group, in per cent) in the assay on Mus musculus [2] came out at 129%; in the assay with Mus musculus [3], 153%; in the assay on Mus musculus [6], 141%; with Mus musculus [7], 106%; with Mus musculus [11], 106%; with Mus musculus [12] it was 118%.

Turning to `CCOP(=O)(N1CC1(C)C)N1CC1(C)C` (stereo unspecified), the T/C in the assay on Mus musculus [13] is reported as 433%; in the assay with Mus musculus [14] it was 250%; in the assay on Mus musculus [15], 80%; in the assay on Mus musculus [20], 289%; in the assay on Mus musculus [22], 160%; in the assay on Mus musculus [23] it was 400%. Besides, the Average weight change in the assay on Mus musculus [16] is given as -0.93 g; in the assay with Mus musculus [17], -2.6 g; in the assay on Mus musculus [18] it was -5.2 g; in the assay on Mus musculus [19] it was -3.58 g; in the assay on Mus musculus [21], 0.33 g; with Mus musculus [24], 0.83 g.

Turning to `CC1(C)CN1P(=O)(NC(=O)OCc1ccc([N+](=O)[O-])cc1)N1CC1(C)C` (stereo unspecified), the Average weight change with Mus musculus [1] is reported as 1.4 g; in the assay with Mus musculus [4], 1.4 g; with Mus musculus [5] it was 2.1 g; in the assay with Mus musculus [8], 1.2 g; in the assay with Mus musculus [9], 0.6 g; in the assay with Mus musculus [10] it was 2 g. Also, the T/C with Mus musculus [2] stood at 113%; in the assay on Mus musculus [3], 119%; in the assay on Mus musculus [6] it was 113%; with Mus musculus [7], 113%; in the assay on Mus musculus [11], 113%; in the assay with Mus musculus [12], 106%.

Regarding `COCC(Cn1ccnc1[N+](=O)[O-])OP(=O)(N1CC1(C)C)N1CC1(C)C` (stereo unspecified), the Average weight change in the assay with Mus musculus [1] is reported as 1.2 g; in the assay with Mus musculus [25] it was 0.4 g; in the assay with Mus musculus [29], 0.2 g; in the assay with Mus musculus [30] it was 0.8 g; in the assay on Mus musculus [32] it was -0.3 g; in the assay with Mus musculus [33], -1.5 g. Further, the T/C in the assay with Mus musculus [26] stood at 200%; with Mus musculus [27], 150%; in the assay with Mus musculus [28], 100%; with Mus musculus [31], 122%; in the assay with Mus musculus [34], 133%; with Mus musculus [11] it was 106%.

As to `CCOC(=O)NP(=O)(N1CC1(C)C)N1CC1(C)C` (stereo unspecified) [METUREDEPA], the T/C with Mus musculus [35] is on record as 181%; in the assay with Mus musculus [37], 163%; in the assay on Mus musculus [41], 244%; in the assay on Mus musculus [42], 231%. For the same molecule, the Average weight change with Mus musculus [36] was -1.3 g; in the assay with Mus musculus [38] it was -0.4 g; with Mus musculus [39], -0.7 g; with Mus musculus [40], -0.2 g.
